Results reported in patent publication US20260137689A1, “INTEGRATION OF MOLECULAR MECHANISMS IN THE STRIATUM AS A COMBINATION DRUG STRATEGY FOR THE TREATMENT OF PSYCHIATRIC AND NEUROLOGICAL DISORDERS IN WHICH ANHEDONIA OR MOTIVATION-RELATED DYSFUNCTION EXISTS” (Alto Neuroscience, Inc., priority 2021, published 2026).
Read-outs that look alike come from different tables or passages of the source.

Columns and labels:
[1] = system: release of gamma-aminobutyric acid (GABA); conditions: cited from earlier work
dopamine release [2] = conditions: rodents (ref. 43); cited from earlier work
Parkinson's models = Parkinson's models (ref. 47); cited from earlier work
dopamine release [3] = conditions: humans (ref. 44); cited from earlier work
C57/BL6 mice = experiment: Forced swim test; type: in vivo; conditions: FIG. 2 doses: imipramine 20 mg/kg, istradefylline 0.1 mg/kg, varenicline 0.17 mg/kg, alone or combined
Description: FIG. 2 is a bar graph of the time during a forced swim test after treatment with saline, 20 mg/kg for imipramine, 0.1 mg/kg for istradefylline, 0.17 mg/kg for varenicline, and a combination of 0.1 mg/kg for istradefylline and 0.17 mg/kg for varenicline.
Without being bound by a particular theory, the inventors theorized that an increase in dopamine release, when coupled with A2A antagonism, could result in an antidepressant response-essentially aiming to replace direct D2 agonism with a drug that leads to its release and to an increase in D2/D3 receptor availability. […] Of note, however, varenicline has been approved in humans for smoking cessation, and initially carried a black box for increased risk for development of depression, a seemingly opposite outcome to our goal. To determine whether such a combination is viable, we conducted forced swim tests in C57/BL6 mice. […] One such example is 5 mg-40 mg of istradefylline together with 0.25-3 mg of varenicline.
To determine whether such a combination is viable, forced swim tests in C57/BL6 mice were conducted. The forced-swim test is used to assess depressive-like behavior in mice. The time spent immobile is considered a measure of depressive-like behavior. Immobility scores for each mouse were determined by manual scoring.

D2/D3 receptor = conditions: rodents (refs. 45, 46); cited from earlier work
D2 receptor = conditions: striatal slices from reserpinized rats (ref. 33); cited from earlier work

In the case of `NC(C(=O)O)c1cc(O)ccc1Cl` (racemic) [CHPG, (RS)-2-chloro-5-hydroxyphenylglycine], the “effect on GABA release by itself” value ([1]; alone (ref. 38)) is listed as “ineffective by itself” and the “effect on quinpirole-induced change of neuronal activity (GABA release)” value ([1]; with the D2/D3 agonist quinpirole (ref. 38)) is listed as “able to counteract the effects”.
For `c1cnc2cc3c(cc2n1)[C@@H]1CNC[C@H]3C1` [varenicline], the dopamine release (dopamine release [2]) is listed as “increase dopamine release”, the motor functioning (Parkinson's models) is listed as “improve motor functioning” and the dopamine release (dopamine release [3]) is listed as “increase dopamine release”. For the same molecule, the “antidepressant response (time spent immobile) in forced swim test” value (C57/BL6 mice) was “by themselves ineffective” and the D2/D3 receptor availability (D2/D3 receptor) was “increase D2/D3 receptor availability”.
In the case of `Nc1nc(NCCc2ccc(O)cc2)nc2nc(-c3ccco3)nn12` [ZM 241385], the “effect on affinity of the D2 receptor for the D2/D3 agonist quinpirole” value (D2 receptor) is listed as “increased the affinity”.
For `CCNC(=O)[C@H]1O[C@@H](n2cnc3c(N)nc(NCCc4ccc(CCC(=O)O)cc4)nc32)[C@H](O)[C@@H]1O` [CGS 21680], the “effect on affinity of the D2 receptor for the D2/D3 agonist quinpirole” value (D2 receptor) is given as “decreased the affinity”.
For `CN(C)CCCN1c2ccccc2CCc2ccccc21` [imipramine], the “antidepressant response (time spent immobile) in forced swim test” value (C57/BL6 mice) was “decrease in immobility”.
